{"source": "patent US20230302084A1", "about": "“METHODS AND COMPOSITIONS FOR TREATING PERIODONTAL DISEASE” (priority 2020, published 2023)", "molecules": {"B1": {"name": "BAR (SspB Adherence Region) peptide (peptide)", "peptide": "LEAAPKKVQDLLKKANITVKGAFQLFS"}}, "key": {"[1]": {"system": "pre-established P. gingivalis-S. gordonii biofilms", "experiment": "Biofilm disruption assay", "assay_type": "cell-based, P. gingivalis (ATCC 33277) / S. gordonii DL-1", "conditions": "3.0 μM, 3 hr on 24 hr biofilms", "method": "The resulting P. gingivalis S. gordonii biofilms were then treated for the maximum duration observed for free BAR to disrupt existing biofilms (3 hr). Established biofilms were administered BAR-EFs, free BAR or blank EFs at various concentrations in 1 mL PBS, and processed and analyzed as described above. The mean and standard deviation (SD) between samples were determined and the percent disruption of P. gingivalis adherence was calculated with the following formula: GR sample/GR control."}, "TIGK cells [2]": {"system": "TIGK cells", "experiment": "MTT assay (BAR, BAR-EFs)", "assay_type": "cell-based", "conditions": "1.3 or 3.4 μM, 24 hr, relative to medium-only treated cells", "method": "(§1) Telomerase immortalized gingival keratinocytes (TIGKs) were grown on 12-well collagen-coated plates (Becton Dickinson, Bedford, MA) and cultured using DermaLife K Calcium Free Medium (LifeFactors®) supplemented with penicillin/streptomycin (100 U/mL final concentration; St. Louis, MO), insulin (5 μg/mL), recombinant human (rh), L-glutamine (6 mM), apo-transferrin (5 μg/mL), epinephrine (1 μM), rh TGF-α (0.5 ng/mL), extract P™, calcium chloride (0.06 mM) and hydrocortisone hemisuccinate (100 ng/mL). The cells were incubated at 37° C. in the presence of 5% CO2 for 6 days until they reached 95% confluence.\nMTT Assay: TIGK cells were seeded in 12-well plates at a density of 6×10^4 cells in 1 mL media per well and incubated for 24 hr to allow for 60-70% confluency and sufficient adhesion. Cells were treated with 1.3 or 3.4 μM of BAR or 10:90 PLGA-PEO BAR-EFs. After 24 hr, 100 μL of MTT solution was added to the media of all samples. After 4 hr incubation at 37° C., 550 μL of lysis buffer was added to the media of each well and plates were incubated for overnight. The absorbance of each well was read at 570 nm, and the sample absorbance was normalized to the absorbance of medium-only treated cells. Cells were treated with 10% DMSO media (100 μL DMSO in 900 μL media) as a positive control for cell death."}, "TIGK cells [3]": {"system": "TIGK cells", "experiment": "ATP assay (BAR, BAR-EFs)", "assay_type": "cell-based", "method": "as §1\nATP Assay: The metabolic activity of TIGK cells was assessed by measuring total ATP levels using the CellTiter-Glo reagent (Promega, Madison WI), as described by the manufacturer. TIGK cells were seeded at a density of 6×10^4 cells in 1 mL media per well and incubated at 37° C., 5% CO2 for 24 hr in a 12-well flat bottom plate. Cells were then incubated with BAR or 10:90 PLGA-PEO BAR-EFs (1.3 or 3.4 μM) for 24 hr at 37° C. in 5% CO2. Cells were then lysed with 500 μL of 0.1% Triton X-100 for 30 min at 37° C. The lysates were collected and centrifuged at 1,000×g for 10 min at 4° C., and 50 μL of supernatant was mixed with 50 μL of CellTiter-Glo reagent. […] Total luminescence was measured with a Victor 3 luminometer (Perkin-Elmer, Inc). […]"}, "TIGK cells [4]": {"system": "TIGK cells", "experiment": "LDH assay (BAR, BAR-EFs)", "assay_type": "cell-based", "method": "as §1\nLDH Assay: Cell membrane leakage was measured by assessing the release of lactate dehydrogenase (LDH). Extracellular LDH was quantified using a CytoTox96® non-radioactive cytotoxicity assay (Promega, Madison WI) as described by the manufacturer. TIGK cells were plated at density of 6×10^4 cells in 1 mL media per well in a 12-well flat bottom plate, and incubated at 37° C., 5% CO2 for 24 hr. BAR or 10:90 PLGA-PEO BAR-EFs (1.3 or 3.4 μM) were added to cells in triplicate for 24 hr at 37° C. in 5% CO2. Fifty microliters of supernatant from free BAR and BAR-EF-treated (1.3 and 3.4 μM) cells were added to the LDH substrate and incubated at room temperature for 30 min. […] LDH activity was determined by measuring the optical density of the solution at 490 nm. […]"}, "TIGK cells [5]": {"system": "TIGK cells", "experiment": "Oxidative DNA damage (AP sites)", "assay_type": "cell-based", "conditions": "1.3 or 3.4 μM, 24 hr", "method": "as §1\nOxidative DNA Damage: Free radicals and other reactive species are generated from cells under stress and cause oxidative damage to biomolecules. DNA is the most targeted site of oxidative attack. […] OxiSelect™ Oxidative DNA Damage Quantitation Kit (Cell Biolabs, INC., San Diego, CA, USA) was used to quantify AP sites in cells treated with free BAR or 10:90 PLGA-PEO BAR-EFs (1.3 or 3.4 μM) as described by the manufacturer. […] AP sites were determined in genomic DNA by using a biotinylated aldehyde reactive probe (ARP) that reacts specifically with an aldehyde group of AP sites, followed by colorimetric detection using a streptavidin-enzyme conjugate (450 nm). The quantity of AP sites in DNA samples was determined by comparing the absorbance with standard curve of known amount of AP sites."}, "[6]": {"system": "P. gingivalis adherence to S. gordonii", "conditions": "3.0 μM", "procedure": "P. gingivalis (ATCC 33277) was grown in Trypticase soy broth (Difco Laboratories Inc., Livonia, MI, USA) supplemented with 0.5% (w/v) yeast extract, 1 μg/mL menadione, and 5 μg/mL hemin. The medium was reduced for 24 hr under anaerobic conditions (10% CO2, 10% H2, and 80% N2) and P. gingivalis was subsequently inoculated and grown anaerobically for 48 hr at 37° C. S. gordonii DL-1 was cultured aerobically without shaking in brain-heart infusion broth (Difco Laboratories Inc.) supplemented with 1% yeast extract for 16 hr at 37° C.\nTo assess the effectiveness of BAR-incorporated EFs to prevent the interaction of P. gingivalis with S. gordonii, S. gordonii was harvested from culture and labeled with 20 μL of 5 mg/mL hexidium iodide for 15 min at room temperature. Following incubation, cells were centrifuged to remove unbound fluorescent dye. The bacterial concentration was subsequently measured by the OD (600 nm) from twenty-fold diluted cultures of S. gordonii. […]\nPlates containing P. gingivalis and S. gordonii were subsequently incubated for 24 hr at 37° C. in anaerobic conditions. […] Images were analyzed with Volocity image analysis software (version 6.3; Perkin Elmer, Waltham, MA, USA) to determine the ratio of green to red fluorescence (GR), representing P. gingivalis and S. gordonii, respectively. Control samples were used to subtract background levels of auto-fluorescence. […]"}, "sheep erythrocytes": {"system": "sheep erythrocytes", "conditions": "1.3, 3.4 μM, 3 hr, relative to H2O-treated cells", "procedure": "Hemolytic Assay: A sample of 250 μL of 1% sheep erythrocytes (Rockland Inc, Pennsylvania, USA) was suspended in sterile PBS. […] Water replaced PBS as a positive control for cell hemolysis. The suspension was incubated at 37° C. for 3 hr then centrifuged at 3,500×g. Hemoglobin released due to cell lysis was analyzed by measuring the absorbance at 541 nm."}, "[7]": {"system": "P. gingivalis adherence to S. gordonii", "conditions": "cited from earlier work"}, "TIGK cells [8]": {"system": "TIGK cells", "experiment": "ATP assay (BAR NPs)", "assay_type": "cell-based", "conditions": "1 ng staurosporine, vs untreated and NP-treated cells", "method": "Total ATP levels in cell culture were assessed by using the CellTiter-Glo reagent (Promega, Madison WI), as described by the manufacturer. TIGK cells were seeded at a density of 6×10^4 cells in 1 mL media per well and incubated at 37° C., 5% CO2 for 24 hr in a 12-well flat bottom plate. Cells were then incubated with CafA-modified BAR-NPs or unmodified BAR-NPs (1.3 or 3.4 μM) for 24 hr at 37° C. in 5% CO2. Cells were then lysed with 500 μL of 0.1% Triton X-100 for 30 min at 37° C. The lysates were collected and centrifuged at 1,000×g for 10 min at 4° C., and 50 μL of supernatant was mixed with 50 μL of CellTiter-Glo reagent. Samples were incubated at ambient temperature for 10 min in a black 96-well plate in the dark. Total luminescence was measured with a Victor 3 luminometer (Perkin-Elmer, Inc). Cells incubated with 1 ng of staurosporine or with medium-only served as positive and negative controls for cell death, respectively."}, "TIGK cells [9]": {"system": "TIGK cells", "experiment": "LDH assay (BAR NPs)", "assay_type": "cell-based", "conditions": "staurosporine, vs control or treated cells", "method": "Cell membrane leakage was measured by the release of lactate dehydrogenase (LDH). Extracellular LDH was quantified using a CytoTox96® non-radioactive cytotoxicity assay (Promega, Madison WI) as described by the manufacturer. TIGK cells were plated at density of 6×10^4 cells in 1 mL media per well in a 12-well flat bottom plate, and incubated at 37° C., 5% CO2 for 24 hr. CafA-modified BAR NPs or unmodified BAR NPs (1.3 or 3.4 μM) were added to cells in triplicate for 24 hr at 37° C. in 5% CO2. Fifty microliters of supernatant from CafA-modified BAR NP- and unmodified BAR NP-treated (1.3 and 3.4 μM) cells were added to the LDH substrate and incubated at room temperature for 30 min. The reactions were subsequently terminated by adding 50 μL of stop solution. LDH activity was determined by measuring the optical density of the solution at 490 nm. Cells treated with staurosporine or with medium-only served as positive and negative controls for cell death, respectively."}, "[10]": {"target": "T1, minor fimbriae (Mfal) of P. gingivalis (Porphyromonas gingivalis, UniProt B2RHG1 50-563)", "T1 sequence (looked up)": "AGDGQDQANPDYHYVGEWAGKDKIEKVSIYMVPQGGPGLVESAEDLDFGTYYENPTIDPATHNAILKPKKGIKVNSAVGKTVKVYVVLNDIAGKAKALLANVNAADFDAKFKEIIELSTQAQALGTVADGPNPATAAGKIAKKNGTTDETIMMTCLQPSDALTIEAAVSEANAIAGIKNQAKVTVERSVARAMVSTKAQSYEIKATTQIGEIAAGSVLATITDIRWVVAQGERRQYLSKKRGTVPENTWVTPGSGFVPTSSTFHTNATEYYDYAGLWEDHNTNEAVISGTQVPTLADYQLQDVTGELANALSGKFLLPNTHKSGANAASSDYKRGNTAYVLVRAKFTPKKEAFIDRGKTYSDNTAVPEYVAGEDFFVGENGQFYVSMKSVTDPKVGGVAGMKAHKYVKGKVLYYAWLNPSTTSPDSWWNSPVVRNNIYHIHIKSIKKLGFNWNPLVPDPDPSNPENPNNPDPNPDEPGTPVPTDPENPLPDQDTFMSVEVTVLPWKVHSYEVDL", "experiment": "cell-based or functional assay"}}}
{"molecule": "H-LEAAPKKVQDLLKKANITVKGAFQLFS-OH [free BAR, NH2-LEA APK KVQ DLL KKA NIT VKG AFQ LFS-COOH]", "values": [{"measurement": "Biofilm formation disrupted", "setting": "[1]", "value": 66, "unit": "%"}, {"measurement": "TIGK cell viability (MTT)", "setting": "TIGK cells [2]", "value": "no loss in viability"}, {"measurement": "ATP levels relative to medium-only treated cells", "setting": "TIGK cells [3]; 1.3 or 3.4 μM, 24 hr", "value": "no decrease in ATP"}, {"measurement": "LDH released relative to medium-only treated cells", "setting": "TIGK cells [4]; 1.3 or 3.4 μM, 24 hr", "value": "no change in levels of LDH"}, {"measurement": "Number of AP sites relative to medium-only treated cells", "setting": "TIGK cells [5]", "value": "no change in the number of AP sites"}, {"measurement": "Biofilm formation inhibited", "setting": "[6]", "value": 81, "unit": "%"}, {"measurement": "Hemolytic activity", "setting": "sheep erythrocytes", "value": "negligible hemolysis"}, {"measurement": "IC50", "setting": "[7]; previously determined, read-out: previously determined IC50 of free BAR", "value": 1300, "unit": "nM"}, {"measurement": "maximum effective concentration", "setting": "[7]; used in in vitro and in vivo studies", "value": 3.4, "unit": "µM"}]}
{"molecule": "CN[C@@H]1C[C@H]2O[C@@](C)([C@@H]1OC)n1c3ccccc3c3c4c(c5c6ccccc6n2c5c31)C(=O)NC4", "note": "[Staurosporine, staurosporine, reference compound]", "values": [{"measurement": "ATP levels (positive control)", "setting": "TIGK cells [3]; 1 ng staurosporine, vs medium-only, free BAR and BAR-EF treated cells", "value": "significantly lower levels of ATP"}, {"measurement": "LDH released (positive control)", "setting": "TIGK cells [4]; staurosporine, relative to medium-only, free BAR and BAR-EFs", "value": "significantly higher level of LDH"}, {"measurement": "ATP levels (positive control)", "setting": "TIGK cells [8]", "value": "significantly lower levels of ATP"}, {"measurement": "LDH activity released (positive control)", "setting": "TIGK cells [9]", "value": "significantly higher"}]}
{"molecule": "B1", "values": [{"measurement": "IC50 of biofilm disruption, BAR-incorporated 10:90 PLGA:PEO EFs", "setting": "[10]", "value": 2000, "unit": "nM"}, {"measurement": "IC50 of inhibition of biofilm formation, BAR-incorporated 10:90 PLGA:PEO EFs", "setting": "[10]", "value": 1300, "unit": "nM"}]}
